What was measured:
[1] = system: HIV-1-IIIB in A3.5 cells; test: HIV-1 replication in A3.5 cells (p24 antigen ELISA); type: cell-based
Source text: […]. The rational for these experiments comes from the reported connection between T-cell activation, IL-2 production, and HIV replication and expression of HIV proteins.
Cell lines used in the present studies include A3.5 cells (a monocyte cell line which is CD4+, HLA−DR+, and CD3—) and peripheral blood mononuclear cells (PBMC). The A3.5 cells grow continuously in culture without exogenous growth factors. PBMC cells require IL-2 for propagation in vitro. Cells were infected with HIV-1-IIIB at a multiplicity of infection (moi) of 5×10^−4 tissue culture infectious dose 50 (TCID50)/cell for both the A3.5 cells and the PMBC cells. Dilutions of inhibitor were made in RPMI-1640 and subsequently passed through a 0.22 um filter. At the start of each experiment, 1×10^6 cells/well, in 24-well plates, were infected with HIV-1-IIIB at the moi indicated above. Inhibitor was added simultaneously at the appropriate dilutions. All cultures were maintained at 5% CO2 and 37° C. in RPMI-1640 supplemented with penicillin, streptomycin, L-glutamine, hepes buffer, and 20% heat-inactivated fetal calf serum. Cell counts and viability were determined by trypan blue exclusion. Culture supernatants were harvested and assayed for HIV-1 p24 antigen by ELISA (NEN-DuPont, Boston, Mass.). Fresh media and inhibitor were added on each day. […]

[2] = Decomposition in aqueous solution; type: physicochemical; settings: neutral pH, room temperature (20–25° C.)
Source text: . Many dipeptide derivatives with a free N terminal amino group and a functional group (such as a difluoromethyl ketone) on the C-terminus are similarly unstable due to intramolecular reaction. A six member ring is formed between the amino and C-terminal functional groups and undergoes subsequent further reaction, such as hydrolysis.

[3] = target: T1, DP-IV isolated from porcine kidneys (Sus scrofa, UniProt P22411); test: DP-IV inhibition, hydrolysis of Ala-Pro-p-nitroanilide; type: biochemical, pig; settings: for Inhibition of / affinity for DP-IV (in words): N terminus blocked
T1 construct: DP-IV is purified from pig kidney cortex by the method of Barth et al; from tissue; host or cells: pig kidney cortex
T1 sequence (P22411 whole entry): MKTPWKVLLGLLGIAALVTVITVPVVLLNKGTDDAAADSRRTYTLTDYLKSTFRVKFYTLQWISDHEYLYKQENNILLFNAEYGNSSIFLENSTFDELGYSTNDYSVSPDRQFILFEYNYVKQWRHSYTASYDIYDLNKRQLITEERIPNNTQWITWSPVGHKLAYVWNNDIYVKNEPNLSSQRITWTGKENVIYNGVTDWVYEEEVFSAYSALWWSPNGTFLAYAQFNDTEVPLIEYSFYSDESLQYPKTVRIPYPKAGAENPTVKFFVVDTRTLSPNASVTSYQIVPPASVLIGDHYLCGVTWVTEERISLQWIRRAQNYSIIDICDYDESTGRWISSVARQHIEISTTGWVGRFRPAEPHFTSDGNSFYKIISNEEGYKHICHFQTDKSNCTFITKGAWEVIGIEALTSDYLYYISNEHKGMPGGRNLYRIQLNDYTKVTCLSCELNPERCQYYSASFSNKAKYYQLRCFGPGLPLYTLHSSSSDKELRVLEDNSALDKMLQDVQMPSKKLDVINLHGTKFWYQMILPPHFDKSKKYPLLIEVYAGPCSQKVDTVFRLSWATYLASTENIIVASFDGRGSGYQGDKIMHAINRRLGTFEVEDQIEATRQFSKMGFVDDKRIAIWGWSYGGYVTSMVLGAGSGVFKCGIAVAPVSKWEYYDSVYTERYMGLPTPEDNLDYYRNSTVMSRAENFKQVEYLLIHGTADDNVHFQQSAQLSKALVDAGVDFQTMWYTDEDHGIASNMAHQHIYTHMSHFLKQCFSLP
Experimental: Briefly, a reaction containing 50 μmol sodium Hepes (pH 7.8), 10 μmol Ala-Pro-p-nitroanilide, 6 milliunits of DP-IV, and 2% (vol/vol) dimethylformamide in a total volume of 1.0 ml. The reaction was initiated by the addition of enzyme and reaction rates were measured at 25° C.
Th rates of DP-IV-catalyzed hydrolysis of Ala-Pro-p-nitroanilide were determined at 3 to 5 different concentration of Ala-boroPro Pro-boroPro, boroPro and N-Boc-Ala-boroPro.

[4] = target: T2, DP-IV from human placenta (Homo sapiens, UniProt P27487); test: DP-IV inhibition, enzyme from human placenta; type: biochemical
T2 construct: and from human placenta by the method of Puschel et al; from tissue; host or cells: human placenta
T2 sequence (P27487 whole entry): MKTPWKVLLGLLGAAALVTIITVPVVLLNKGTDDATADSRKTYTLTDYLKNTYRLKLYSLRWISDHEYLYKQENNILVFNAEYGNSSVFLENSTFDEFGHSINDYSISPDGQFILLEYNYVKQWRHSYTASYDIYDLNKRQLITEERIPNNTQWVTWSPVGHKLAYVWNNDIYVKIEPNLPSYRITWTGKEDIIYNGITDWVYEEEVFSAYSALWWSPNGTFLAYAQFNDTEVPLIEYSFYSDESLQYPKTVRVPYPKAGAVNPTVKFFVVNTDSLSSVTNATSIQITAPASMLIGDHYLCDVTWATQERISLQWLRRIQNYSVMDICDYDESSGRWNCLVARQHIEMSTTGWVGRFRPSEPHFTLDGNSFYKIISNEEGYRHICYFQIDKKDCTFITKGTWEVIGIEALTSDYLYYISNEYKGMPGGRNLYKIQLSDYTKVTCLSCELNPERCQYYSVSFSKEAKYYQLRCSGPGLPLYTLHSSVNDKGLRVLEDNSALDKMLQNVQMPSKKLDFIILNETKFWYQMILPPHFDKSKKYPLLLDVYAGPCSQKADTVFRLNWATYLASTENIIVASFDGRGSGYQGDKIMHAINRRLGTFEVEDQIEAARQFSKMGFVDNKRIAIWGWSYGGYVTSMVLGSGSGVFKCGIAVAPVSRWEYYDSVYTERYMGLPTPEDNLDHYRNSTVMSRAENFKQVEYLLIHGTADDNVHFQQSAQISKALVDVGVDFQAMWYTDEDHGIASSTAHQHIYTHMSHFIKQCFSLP

SMILES: C[C@H](N)C(=O)N1CCCC1B(O)O (mixture of isomers) [Ala-boroPro, H-Ala-boroPro]
- Suppression of HIV (p24 antigen) ([1]; A3.5 cells infected with HIV-1-IIIB): suppresses HIV below detectable levels
- half-life [2]: ~0.5 h

SMILES: O=C([C@@H]1CCCN1)N1CCCC1B(O)O (mixture of isomers) [Pro-boroPro, H-Pro-boroPro]
- Ki [3]: 0.003 µM
- Ki for DP-IV (in words) ([3]; pig kidney DP-IV): nanomolar range
- Affinity for DP-IV, fold less than that of H-Ala-boroPro ([3]; relative to H-Ala-boroPro): about 10 fold
- Inhibition of DP-IV from human placenta compared with pig kidney enzyme [4]: equally well
- half-life [2]: ~1.5 h

SMILES: Cc1cn([C@H]2C[C@H](N=[N+]=[N-])[C@@H](CO)O2)c(=O)[nH]c1=O [AZT, zidovudine, reference compound]
- Anti-HIV effect (p24 antigen) ([1]; 1 μM, A3.5 cells): anti-HIV effect

SMILES: OB(O)C1CCCN1 (stereo not shown) [BoroPro, boroProline]
- Ki [3]: 110 µM
- Decrease in affinity on going from Ala-boroPro or Pro-boroPro ([3]; relative to Ala-boroPro or Pro-boroPro, Table 1): 10^5–10^6

SMILES: CC(NC(=O)OC(C)(C)C)C(=O)N1CCCC1B(O)O (stereo not drawn) [N-Boc-Al-boroPro, N-Boc-Ala-boroPro]
- Ki [3]: > 1000 µM
- Inhibition of / affinity for DP-IV (in words) [3]: abolished inhibition
- Inhibition of / affinity for DP-IV (in words) ([3]; listed as Boc-blocked Ala-boroPr): no affinity
